# Measured values taken from patent US10011813B2, “Methane oxidation methods and compositions” (California Institute of Technology, priority 2015, dated 2018).
# “And” between values parts separate entries of the source, which are not always exact repeats. Equal values may be shown once. Marks after values point to notes of the source that are not given here.
# Legend:
# [1] = test system: methane seep sediment (ANME archaea); test: AOM rate measurement via 13C-methane (newly formed DIC) in methane seep sediment incubations; format: cell-based, ANME-2a and ANME-2c
# Description: General description of methane oxidation measurements via ^13C-methane. Methane oxidation was quantified by determining the production of inorganic carbon (“CO2”). Accurate quantification of the concentration of inorganic carbon formed from methane oxidation is challenging due to 4 main reasons:
# A defined amount of added DIC in artificial, buffered seawater was used with a low calcium concentration to prevent carbonate precipitation (see medium composition). As ^13CH4 was the only ^13C-enriched carbon source added, the newly formed ^13C-DIC must be derived from methane. For low methane oxidation rates (less than ca. 5% relative to sulfate as the oxidant or electron acceptor), however, enzyme-catalyzed isotope exchange between methane and DIC, needs to be taken into account, because it contributes to ^13C enrichment of the DIC without net methane oxidation, resulting in an overestimation of net methane oxidation. […] Details of both methods, the ^13CH4 experiments and the standard addition are described herein.
# Incubation conditions for AOM rate measurement. Each incubation vial was set up with 1.0 cm^3 wet sediment (wet sediment=volume of sediment after allowing the sediment slurry settle for 48 h) in total slurry volume of […] as follows: Sterile serum vials were closed with butyl rubber stoppers (volume=12.9 ml after closing) and flushed with methane. 1.0 mL ^13CH4 (99% ^13C, Cambridge Isotope Laboratories, containing 0.05 vol % ^13CO2 as an impurity) was introduced anaerobically. 2.0 mL of artificial, anaerobic seawater containing 2.5× the target concentration of the corresponding electron acceptor was injected into the serum vial cooled on ice. For AQDS and 1,5-AQDS, this was a suspension corresponding to 25 mM (see TABLE 3).
# The 1 L pyrex bottle with the sediment in the sulfate-free medium (1 part wet sediment in 3 parts of slurry volume) was vigorously shaken each time and 3.0 mL of slurry immediately removed and injected into the individual serum bottles. Each stoppered serum vial was supplemented with unlabeled methane (0.250 MPa overpressure: pressure gauge SSI Technologies, Inc., Media Gauge™) shaken and stored inverted at 4° C. (final headspace: 0.35 MPa methane, with ca. 4% ^13CH4). The exact fractional abundance of ^13C in the methane was quantified via ^1H-NMR spectroscopy for individual incubations.
# AOM rate measurements (quantification of newly formed DIC based on ^13CH4). For ^13C-DIC analysis, 0.25 mL of the medium above the settled sediment in the microcosm was sampled with a disposable needle and syringe at each time point (same intervals for all experiments) and centrifuged (16000 rcf, 5 min). The supernatant was transferred into 0.6 mL eppendorf tubes, flash frozen in N2 (l), and stored at −20° C. until measurement. 150 μL of the thawed supernatant was then added to He-flushed vials containing 100 μL H3PO4 (85%). The resulting CO2 was analyzed for the isotopic enrichment (^13F(tn)) on a GC-IR-MS GasBench II (Thermo Scientific). The amount of DIC newly formed (Δ[DIC](tn), see FIG. 6B) was calculated from the measured ^13F (fractional abundance of ^13C), neglecting isotope effects on AOM according to Equation (1): Δ[DIC](tn)=[DIC](t0)*(^13F(tn)−^13F(t0))/(^13F(CH4)−^13F(tn)) (EQ. 1)
# [2] = Quantification of AQDS solubility in the incubation medium; format: physicochemical
# Description: Quantification of AQDS solubility in the incubation medium. Different regioisomers of AQDS (1,5-AQDS, 2,6-AQDS and 2,7-AQDS) were separately added to the modified artificial seawater described above, to a targeted final concentration of 25 mM. The suspensions were ultra-sonicated at room temperature to dissolve as much of the AQDS as possible. The tubes were kept at 4° C. or at 22.5° C. overnight. The tubes were centrifuged at 4° C. or 22.5° C. (16000 rcf, 30 min). The supernatant (300 μL) was mixed with 300 μL acetate (10.0 mM) as the internal standard and 100 μL deuterated water (99.9% D, Cambridge Isotope Laboratories) was added. The concentration of AQDS was obtained from integration of the ^1H-NMR spectra by comparison relative to the acetate standard.
# [3] = test system: ANME-SRB consortia; test: FISH-nanoSIMS 15N incorporation (anabolic activity) of ANME-SRB consortia; format: cell-based, ANME-2c archaea and Desulfobacteraceae
# Description: Incubations for FISH-nanoSIMS and RNA analysis. For AOM incubations with sulfate or AQDS that were used for nanoSIMS (FIG. 7 and FIG. 8A) and RNA analysis (FIG. 6), incubations experiments were set up following the AOM-rate measurements described above (initially containing 1.0 mM ammonium without ^15N label). Methane oxidation rates were tracked in these incubations via the ^13C label. After 11 days, ca. 3.5 mL of supernatant remained in the serum bottles to which 3.0 mL artificial seawater without ammonium containing either 25 mM AQDS, 28 mM sulfate, or no oxidant or electron acceptor was added. Next, 0.1 mL ^15NH4^+ (100 mM) was injected to yield about 2.0 mM ammonium with ca. 75% ^15N. Methane oxidation was monitored. After additional 8 days, the medium of the AQDS incubations was exchanged by 5.0 mL new medium containing 25 mM AQDS and 2.0 mM ^15NH4^+. Now the AQDS incubations contained ca. 95% ^15NH4^+ in the ammonium pool. The cultures were incubated for additional 10 days before harvest. Total incubation time with labeled ammonium: 18 days. Average labeling strength: ca. 75% for sulfate and no oxidant or electron acceptor control; ca. 86% for the AQDS incubations.
# For the second independent set of experiments with iron citrate, humic acids and sulfate (FIG. 8B), the medium contained 1.0 mM ammonium with ca. 40% ^15N label throughout the incubation period. These experiments were carried out from identical incubations that were for the AOM rate measurements (highlighted in Table 4). In regards to Table 4, the percentage AOM rates are reported relative to sulfate-coupled AOM (1.50 μmol cm^−3 day^−1). Top: Summary of compounds described in FIG. 1B; Bottom: Oxidants or electron acceptors resulting in an AOM rate less than 0.10 μmol […] day^−1 (<7% rel. to sulfate as oxidant or electron acceptor).
# Sampling for FISH-nanoSIMS and RNA. After an 18-day incubation in the presence of ^15NH4^+, each incubation was shaken to suspend the sediment and 1.0 mL sediment slurry was sampled using a disposable sterile needle and syringe (ca. 0.3 mL wet sediment). […]
# Sample preparation for aggregate embedding, sectioning, FISH, and nanoSIMS. […] Sections of ca. 1 μm thickness were cut and stretched on a water droplet on a polylysine coated slide with teflon wells (Tekdon Inc) and analyzed by fluorescence in situ hybridization (FISH). […]
# FISH conditions and probes. The FISH hybridization on thin sections of resin embedded microbial aggregates followed the recently optimized protocol described in S. E. McGlynn et al. The phylogenetic identity of microorganisms in the thin sections were determined using conventional FISH using oligonucleotide probes fluorescently labeled on both the 5′ and 3′ ends (dual labeled) as outlined herein. […]
# [4] = test system: methane seep sediment (ANME archaea); test: Quantification of sulfide (methylene blue method) in AOM incubations; format: cell-based, ANME-2a and ANME-2c; details: Sulfate 28 mM, after 21-day incubation
# Description: Quantification of sulfide. Supernatant was removed via syringe and centrifuged in 0.6 mL Eppendorf tubes (16000 rcf, 30 s). 20 μL of the clear supernatant was removed and added to 400 μL Zn(OAc)2 (500 mM) to preserve the sulfide. Analysis was carried out in triplicate via the methylene blue method described in J. D. Clin (Waters. Limnol. Oceanogr. 14:454 (1969)), using standards of 0.1, 0.25, 0.5, 1, 2, 5, 10 and 25 mM sulfide added to Zn(OAc)2 (500 mM) in the same ratios as for the samples. Quantification was carried out in a plate reader (TECAN Sunrise™) by monitoring the absorbance at 670 nm.
compound,measurement,setting,value
1-Hydroxynaphthoquinone,Rate relative to AOM with sulfate,"[1]; 10 mM, 1 mM, no MoO4^2−",≤1.5 ^† %
"O=C1c2cccc(S(=O)(=O)O)c2C(=O)c2cccc(S(=O)(=O)O)c21 [1,5-AQDS, 9,10-anthraquinone-1,5-disulfonate]",Rate relative to AOM with sulfate,"[1]; 10 mM, no MoO4^2−",38%
same,Solubility in the incubation medium,[2]; 4° C.,2.5 mM
"O=C1c2ccc(S(=O)(=O)O)cc2C(=O)c2cc(S(=O)(=O)O)ccc21 [2,7-AQDS, 9,10-anthraquinone-2,7-disulfonate]",Rate relative to AOM with sulfate,"[1]; 10 mM, no MoO4^2−",97%
same,Solubility in the incubation medium,[2]; 4° C.,>25 mM
same,Solubility in the incubation medium,[2]; 22.5° C.,>25 mM
O=C([O-])CN(CCN(CC(=O)[O-])CC(=O)[O-])CC(=O)[O-].[Fe+3] [Fe(III)-EDTA],Rate relative to AOM with sulfate,"[1]; 1.6 mM, no MoO4^2−",8%
same,Rate relative to AOM with sulfate,"[1]; 10 mM, no MoO4^2−",≤1.5 ^† %
O=C([O-])CN(CC(=O)[O-])CC(=O)[O-].[Fe+3] [Fe(III)-NTA],Rate relative to AOM with sulfate,"[1]; 1 mM, no MoO4^2−",2.5%
same,Rate relative to AOM with sulfate,"[1]; 10 mM, no MoO4^2−",≤1.5 ^† %
O=C([O-])CC(O)(CC(=O)[O-])C(=O)[O-].[Fe+3] [Fe(III)-citrate],Rate relative to AOM with sulfate,"[1]; 2 mM, with 25 mM MoO4^2−",7%
same,Rate relative to AOM with sulfate,"[1]; 5 mM, with 25 mM MoO4^2−",37%
same,Rate relative to AOM with sulfate,"[1]; 10 mM, no MoO4^2−",53%
same,Rate relative to AOM with sulfate,"[1]; 10 mM, with 25 mM MoO4^2−",46%
same,Rate relative to AOM with sulfate,"[1]; 25 mM, with 25 mM MoO4^2−",2.5%
same,"AOM consortia anabolically active (>10% archaeal activity relative to sulfate treatments, or >0.8 at % 15N)","[3]; second set of experiments, ca. 40% 15N",14 out of 31
O=C1C(=C2Nc3c(cc(S(=O)(=O)O)cc3S(=O)(=O)O)C2=O)Nc2c1cc(S(=O)(=O)O)cc2S(=O)(=O)O [Indigo tetrasulfonate],Rate relative to AOM with sulfate,"[1]; 10 mM, 1 mM, no MoO4^2−",≤1.5 ^† %
CN(C)c1ccc2nc3ccc(=[N+](C)C)cc-3sc2c1 [Methylene blue],Rate relative to AOM with sulfate,"[1]; 1 mM, no MoO4^2−",≤1.5 ^† %
COS(=O)(=O)[O-].C[n+]1c2ccccc2nc2ccccc21 [Phenazine methosulfate],Rate relative to AOM with sulfate,"[1]; 1 mM, no MoO4^2−",≤1.5 ^† %
Nc1ccc2nc3ccc(N)cc3[n+](-c3ccccc3)c2c1 [Phenosafranine],Rate relative to AOM with sulfate,"[1]; 10 mM, 1.6 mM, no MoO4^2−",≤1.5 ^† %
O=c1ccc2[n+]([O-])c3ccc(O)cc3oc-2c1 [Resazurin],Rate relative to AOM with sulfate,"[1]; 10 mM, no MoO4^2−",≤1.5 ^† %
Cc1cc2nc3cc(C)c(N)cc3[n+](-c3ccccc3)c2cc1N.[Cl-] [Safranine T],Rate relative to AOM with sulfate,"[1]; 10 mM, 1.6 mM, no MoO4^2−",≤1.5 ^† %
O=S(=O)(O)O [Sulfate],Rate relative to AOM with sulfate,"[1]; 28 mM, no MoO4^2−, 100% = 1.50 μmol cm^−3 day^−1",100%
same,Rate relative to AOM with sulfate,"[1]; 28 mM, with 25 mM MoO4^2−",20%
same,DIC formed,"[1]; Sulfate 28 mM, after 21-day incubation",6.44 mM and 7.77 mM and 7.51 mM and 7.29 mM
same,sulfate-coupled AOM rate,[1]; reference rate (100%) of Table 4,1.50 μmol cm^−3 day^−1
same,AOM rate,[1]; sediment characterization,1.5 μmol methane (cm^3 wet sediment)^−1 d^−1
same,"sulfide (sum of HS^− and H2S), final concentration",[4],5.9 mM and 6.5 mM and 7.0 mM and 6.1 mM
same,doubling time of ANME cells based on average 15N-incorporation,[3]; 18 days with 15NH4+,2.9 months
"[Na+].[Na+].[O]=[Mo](=[O])([O-])[O-] [molybdate, sodium molybdate]",effect on methane oxidation in sulfate-free incubations containing AQDS,"[1]; 25 mM molybdate, AQDS 10 mM",no inhibitory response
same,effect on rates of sulfate-coupled AOM relative to controls,"[1]; 25 mM molybdate, sulfate 28 mM",decreased by approximately fivefold
